Source: patent EP2611798B1, “PYRIDAZINONES, METHOD OF MAKING, AND METHOD OF USE THEREOF” (Gilead Connecticut, Inc., priority 2010, dated 2012)

Assays:
[1] = test system: production of CD69 by B lymphocytes in human whole blood; assay: CD69 Whole Blood Assay (Example 907); format: cell-based; settings: Lymphocyte; human whole blood activated with goat F(ab')2 anti-human IgM, 20 hours; percent CD69 positive cells that are also CD20 positive
Excerpt: A CD69 Whole Blood Assay can be conducted on Formula I compounds to determine the ability of compounds to inhibit the production of CD69 by B lymphocytes in human whole blood activated by crosslinking surface IgM with goat F(ab')2 anti-human IgM (Example 907).
Human blood is obtained from healthy volunteers, with the following restrictions: 1 week drug-free, non-smokers. Blood (approximately 20 mls to test 8 compounds) is collected by venipuncture into Vacutainer® (Becton, Dickinson and Co.) tubes with sodium heparin.
Solutions of Formula I compounds at 10 mM in DMSO are diluted 1:10 in 100% DMSO, then are diluted by three-fold serial dilutions in 100% DMSO for a ten point dose-response curve. The compounds are further diluted 1:10 in PBS and then an aliquot of 5.5 µl of each compound is added in duplicate to a 2 ml 96-well plate; 5.5 µl of 10% DMSO in PBS is added as control and no-stimulus wells. Human whole blood - HWB (100 µl) is added to each well. After mixing the plates are incubated at 37 °C, 5% CO2, 100% humidity for 30 minutes. Goat F(ab')2 anti-human IgM (10 µl of a 500 µg/ml solution, 50 µg/ml final) is added to each well (except the no-stimulus wells) with mixing and the plates are incubated for an additional 20 hours. At the end of the 20 hour incubation, samples are incubated with fluorescent labeled antibodies for 30 minutes, at 37 °C, 5% CO2, 100% humidity. Include induced control, unstained and single stains for compensation adjustments and initial voltage settings. Samples are then lysed with PharM Lyse™ (BD Biosciences Pharmingen) according to the manufacturer's instructions. Samples are then transferred to a 96 well plate suitable to be run on the BD Biosciences HTS 96 well system on the LSRII machine. Data acquired and Mean Fluorescence Intensity values were obtained using BD Biosciences DIVA Software. Results are initially analyzed by FACS analysis software (Flow Jo). […] The IC50 values are calculated by Prism version 5, using a nonlinear regression curve fit.

[2] = target: T1, full length human wildtype Btk (Homo sapiens, UniProt Q06187); assay: Biochemical Btk Kinase Assay (Example 901); settings: time-resolved fluorescence, final ATP concentration 40 µM; alternatively Lanthascreen assay, ATP 25 uM
T1 construct: V5 (C); 6xHis (C); made in house; host or cells: Sf9 insect cells (baculovirus, pFastBac)
Procedure: Formula I compounds were tested by a standard biochemical Btk Kinase Assay (Example 901). A generalized procedure for a standard biochemical Btk Kinase Assay that can be used to test Formula I compounds is as follows. […] Btk enzyme is prepared as follows: full length human wildtype Btk (accession number NM-000061) with a C-terminal V5 and 6x His tag was subcloned into pFastBac vector for making baculovirus carrying this epitope-tagged Btk. Generation of baculovirus is done based on Invitrogen's instructions detailed in its published protocol "Bac-to-Bac Baculovirus Expression Systems" (Cat. Nos. 10359-016 and 10608-016). Passage 3 virus is used to infect Sf9 cells to overexpress the recombinant Btk protein. The Btk protein is then purified to homogeneity using Ni-NTA column. The purity of the final protein preparation is greater than 95% based on the sensitive Sypro-Ruby staining. A solution of 200 µM ATP is prepared in water and adjusted to pH7.4 with 1N NaOH. A quantity of 1.25 µL of compounds in 5%DMSO is transferred to a 96-well ½ area Costar polystyrene plate. Compounds are tested singly and with an 11-point dose-responsive curve (starting concentration is 10 µM; 1:2 dilution). A quantity of 18.75 µL of master mix minus enzyme (as a negative control) and master mix plus enzyme is transferred to appropriate wells in 96-well ½ area costar polystyrene plate. 5 µL of 200 µM ATP is added to that mixture in the 96-well ½ area Costar polystyrene plate for final ATP concentration of 40 µM. The reaction is allowed to incubate for 1 hour at room temperature. The reaction is stopped with Perkin Elmer 1X detection buffer containing 30 mM EDTA, 20 nM SA-APC, and 1 nM PT66 Ab. The plate is read using time-resolved fluorescence with a Perkin Elmer Envision using excitation filter 330 nm, emission filter 665 nm, and 2nd emission filter 615 nm. IC50 values are subsequently calculated. Alternatively, the Lanthascreen assay can be used to evaluate Btk activity through quantification of its phosphorylated peptide product. The FRET (Fluorescence Resonance Energy Transfer) that occurs between the fluorescein on the peptide product and the terbium on the detection antibody decreases with the addition of inhibitors of Btk that reduce the phosphorylation of the peptide. […] After incubation for 60 minutes at room temperature, the reaction is stopped by the addition of a final concentration of 2 nM Tb-PY20 detection antibody in 60 mM EDTA for 30 minutes at room temperature. Detection is determined on a Perkin Elmer Envision with 340 nm excitation and emission at 495 nm and 520 nm. Exemplary Btk inhibition IC50 values are in Tables and 2.

CD86 surface expression = assay: CD86 Inhibition Assay (Example 905), inhibition of B cell activity in total mouse splenocytes; format: cell-based, Balb/c mice; settings: Splenocyte; total mouse splenocytes stimulated with 15 µg/ml IgM for 24 hr; gated on CD19+/7AAD- population
Procedure: A CD86 Inhibition assay can be conducted on Formula I compounds for the inhibition of B cell activity using total mouse splenocytes purified from spleens of 8-16 week old Balb/c mice (Example 905).
A generalized procedure for a standard assay for the inhibition of B cell activity that can be used to test Formula I compounds is as follows. Total mouse splenocytes are purified from spleens of 8-16 week old Balb/c mice by red blood cell lysis (BD Pharmingen #555899). Testing compounds are diluted to 0.5% DMSO and incubated with 1.25 x 10^6 splenocytes in a final volume of 200 µl in flat clear bottom plates (Falcon 353072) for 60 min at 37°C. Cells are then stimulated with the addition of 15 µg/ml IgM (Jackson ImmunoResearch 115-006-020), and incubated for 24 hr at 37°C, 5% CO2. Following the 24 hr incubation, cells are transferred to conical bottom clear 96-well plates and pelleted by centrifugation at 1200 x g x 5 min. Cells are preblocked by CD16/CD32 (BD Pharmingen #553142), followed by triple staining with CD19-FITC (BD Pharmingen #553785), CD86-PE (BD Pharmingen #553692), and 7AAD (BD Pharmingen #51-68981E). Cells are sorted on a BD FACSCalibur and gated on the CD19^+/7AAD^- population. The levels of CD86 surface expression on the gated population is measured versus test compound concentration. Exemplary results are in Table 3.

T1 sequence (Q06187 whole entry): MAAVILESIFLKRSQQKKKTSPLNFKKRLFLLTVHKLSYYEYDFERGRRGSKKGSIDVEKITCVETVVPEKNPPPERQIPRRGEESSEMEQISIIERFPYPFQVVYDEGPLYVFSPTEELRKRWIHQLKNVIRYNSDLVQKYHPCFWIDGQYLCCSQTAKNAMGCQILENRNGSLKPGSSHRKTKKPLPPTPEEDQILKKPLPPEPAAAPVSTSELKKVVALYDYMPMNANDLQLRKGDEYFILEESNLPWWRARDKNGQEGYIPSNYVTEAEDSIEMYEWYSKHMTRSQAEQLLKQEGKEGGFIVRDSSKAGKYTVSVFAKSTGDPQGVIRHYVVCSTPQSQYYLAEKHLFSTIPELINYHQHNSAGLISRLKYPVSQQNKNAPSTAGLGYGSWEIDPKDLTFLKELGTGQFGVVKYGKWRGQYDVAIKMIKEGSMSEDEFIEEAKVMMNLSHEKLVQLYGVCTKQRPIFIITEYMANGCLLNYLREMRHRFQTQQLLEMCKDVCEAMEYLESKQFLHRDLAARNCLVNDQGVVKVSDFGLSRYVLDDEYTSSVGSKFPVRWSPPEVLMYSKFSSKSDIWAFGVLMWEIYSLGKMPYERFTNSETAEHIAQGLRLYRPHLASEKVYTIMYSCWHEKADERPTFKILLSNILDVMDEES

Row | Compound | IC50 [1] [nM] | IC50 [2] [nM] | EC50 (CD86 surface expression) [nM]
1 | Cc1c(-c2cc(Nc3cc(C4CC4)[nH]n3)c(=O)[nH]n2)cccc1N1Cc2cc(C(C)(C)C)sc2C1=O [Compound 113, 6-(3-{2-tert-butyl-6-oxo-4H,5H,6H-thieno[2,3-c]pyrrol-5-yl}-2-methylphenyl)-4-[(5-cyclopropyl-1H-pyrazol-3-yl)amino]-2,3-dihydropyridazin-3-one] | 213 | 4 | 
2 | CC(C)(C)c1cc2c(s1)C(=O)N(c1nc(-c3cc(Nc4cc(C5CC5)[nH]n4)c(=O)[nH]n3)ccc1F)C2 [Compound 116, 6-(6-{2-tert-butyl-6-oxo-4H,5H,6H-thieno[2,3-c]pyrrol-5-yl}-5-fluoropyridin-2-yl)-4-[(5-cyclopropyl-1H-pyrazol-3-yl)amino]-2,3-dihydropyridazin-3-one] | 2500 | 35 | 
3 | Cc1c(-c2cc(Nc3cc4n(n3)CCN(C)C4)c(=O)[nH]n2)cc(F)cc1N1Cc2cc(C(C)(C)C)sc2C1=O [Compound 122, 6-(3-{2-tert-butyl-6-oxo-4H,5H,6H-thieno[2,3-c]pyrrol-5-yl}-5-fluoro-2-methylphenyl)-4-({5-methyl-4H,5H,6H,7H-pyrazolo[1,5-a]pyrazin-2-yl}amino)-2,3-dihydropyridazin-3-one] | 101 |  | 211
4 | Cn1nc(-c2cccc(N3Cc4cc(C(C)(C)C)sc4C3=O)c2CO)cc(Nc2cc3n(n2)CCN(C2CC2)C3)c1=O [Compound 133, 6-(3-{2-tert-butyl-6-oxo-4H,5H,6H-thieno[2,3-c]pyrrol-5-yl}-2-(hydroxymethyl)phenyl)-4-({5-cyclopropyl4H,5H,6H,7H-pyrazolo[1,5-a]pyrazin-2-yl}amino)-2-methyl-2,3-dihydropyridazin-3-one] | 147 |  | 
5 | Cn1nc(-c2ccc(F)c(N3Cc4cc(C(C)(C)C)sc4C3=O)c2CO)cc(Nc2cc(C3CC3)[nH]n2)c1=O [Compound 142, 6-(3-{2-tert-butyl-6-oxo-4H,5H,6H-thieno[2,3-c]pyrrol-5-yl} -4-fluoro-2-(hydroxymethyl)phenyl)-4-[(5-cyclopropyl-1H-pyrazol-3-yl)amino]-2-methyl-2,3-dihydropyridazin-3-one] | 410 |  | 1200
